Measurements as given in US20260028365A1 (BIOGEN MA INC., priority 2022, published 2026).

Tests used:
JH2 domain of human Tyk2 = JH2 domain of human Tyk2 (Homo sapiens (Human), UniProt P29597); experiment: JH2 Biochemical Assay (TR-FRET probe displacement); format: binding; conditions: TR-FRET probe displacement, JH2 domain of human Tyk2
Tyk2 = Tyk2 (Homo sapiens (Human), UniProt P29597); experiment: pSTAT4 Cell Assay (MSD, NK92 cells); format: cell-based; conditions: MSD
JAK2 = JAK2 (Homo sapiens (Human), UniProt O60674); experiment: pSTAT5 Cell Assay (MSD, TF1 cells); format: cell-based; conditions: IL-3 stimulation, MSD
Chain of JAK2 (O60674 whole entry): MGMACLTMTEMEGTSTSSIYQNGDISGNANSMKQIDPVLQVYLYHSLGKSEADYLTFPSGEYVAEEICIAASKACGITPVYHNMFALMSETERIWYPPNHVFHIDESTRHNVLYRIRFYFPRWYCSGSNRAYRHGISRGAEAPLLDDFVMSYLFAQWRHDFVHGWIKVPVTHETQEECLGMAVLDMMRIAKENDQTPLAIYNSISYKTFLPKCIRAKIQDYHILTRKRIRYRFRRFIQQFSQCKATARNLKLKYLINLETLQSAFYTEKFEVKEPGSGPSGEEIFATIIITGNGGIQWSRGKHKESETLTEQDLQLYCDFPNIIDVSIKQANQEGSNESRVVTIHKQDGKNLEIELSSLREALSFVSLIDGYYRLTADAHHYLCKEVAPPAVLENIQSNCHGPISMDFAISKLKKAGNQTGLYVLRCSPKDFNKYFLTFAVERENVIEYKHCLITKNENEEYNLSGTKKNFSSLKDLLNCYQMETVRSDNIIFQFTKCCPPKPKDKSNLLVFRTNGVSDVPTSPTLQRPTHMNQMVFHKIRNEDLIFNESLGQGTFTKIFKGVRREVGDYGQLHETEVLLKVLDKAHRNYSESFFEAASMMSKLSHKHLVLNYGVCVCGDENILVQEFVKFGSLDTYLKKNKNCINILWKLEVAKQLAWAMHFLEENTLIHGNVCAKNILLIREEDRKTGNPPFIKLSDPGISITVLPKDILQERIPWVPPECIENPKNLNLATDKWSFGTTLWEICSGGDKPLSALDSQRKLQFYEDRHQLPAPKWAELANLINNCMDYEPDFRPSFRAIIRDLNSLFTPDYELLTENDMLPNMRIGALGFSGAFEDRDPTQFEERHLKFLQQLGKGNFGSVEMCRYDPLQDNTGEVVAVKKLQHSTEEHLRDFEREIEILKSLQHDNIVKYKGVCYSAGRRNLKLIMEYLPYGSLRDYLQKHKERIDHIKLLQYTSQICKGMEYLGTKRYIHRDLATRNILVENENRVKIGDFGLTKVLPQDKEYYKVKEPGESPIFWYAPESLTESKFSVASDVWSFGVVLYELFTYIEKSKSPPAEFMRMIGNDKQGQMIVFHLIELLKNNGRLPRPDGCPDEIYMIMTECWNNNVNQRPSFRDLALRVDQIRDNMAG
Protocol: Compounds of the disclosure were assessed for their ability to inhibit the JAK2 kinase activity on STAT5 utilizing an MSD-platform plate-based assay format. TF1 cells natively expressing STAT5 and JAK2 were serum-starved to reduce background phosphorylation levels, then cells were treated with compounds of disclosure for 1 hour with a 10-point four-fold dilution series starting at 10 μM. Cells were then stimulated with 30 ng/mL IL-3 for 15 minutes. Cells were then lysed and pSTAT5 levels were quantitated using an MSD plate-based assay with anti-STAT5 antibodies. The data were normalized and the percent activity versus log concentration of compound was fitted with a 4-parameter logistic model to generate a curve and an IC50 value.

JAK1 = JAK1 (Homo sapiens (Human), UniProt P23458); experiment: pSTAT3 Cell Assay (MSD, TF1 cells); format: cell-based; conditions: IL-6 stimulation, MSD
Chain of JAK1 (P23458 whole entry): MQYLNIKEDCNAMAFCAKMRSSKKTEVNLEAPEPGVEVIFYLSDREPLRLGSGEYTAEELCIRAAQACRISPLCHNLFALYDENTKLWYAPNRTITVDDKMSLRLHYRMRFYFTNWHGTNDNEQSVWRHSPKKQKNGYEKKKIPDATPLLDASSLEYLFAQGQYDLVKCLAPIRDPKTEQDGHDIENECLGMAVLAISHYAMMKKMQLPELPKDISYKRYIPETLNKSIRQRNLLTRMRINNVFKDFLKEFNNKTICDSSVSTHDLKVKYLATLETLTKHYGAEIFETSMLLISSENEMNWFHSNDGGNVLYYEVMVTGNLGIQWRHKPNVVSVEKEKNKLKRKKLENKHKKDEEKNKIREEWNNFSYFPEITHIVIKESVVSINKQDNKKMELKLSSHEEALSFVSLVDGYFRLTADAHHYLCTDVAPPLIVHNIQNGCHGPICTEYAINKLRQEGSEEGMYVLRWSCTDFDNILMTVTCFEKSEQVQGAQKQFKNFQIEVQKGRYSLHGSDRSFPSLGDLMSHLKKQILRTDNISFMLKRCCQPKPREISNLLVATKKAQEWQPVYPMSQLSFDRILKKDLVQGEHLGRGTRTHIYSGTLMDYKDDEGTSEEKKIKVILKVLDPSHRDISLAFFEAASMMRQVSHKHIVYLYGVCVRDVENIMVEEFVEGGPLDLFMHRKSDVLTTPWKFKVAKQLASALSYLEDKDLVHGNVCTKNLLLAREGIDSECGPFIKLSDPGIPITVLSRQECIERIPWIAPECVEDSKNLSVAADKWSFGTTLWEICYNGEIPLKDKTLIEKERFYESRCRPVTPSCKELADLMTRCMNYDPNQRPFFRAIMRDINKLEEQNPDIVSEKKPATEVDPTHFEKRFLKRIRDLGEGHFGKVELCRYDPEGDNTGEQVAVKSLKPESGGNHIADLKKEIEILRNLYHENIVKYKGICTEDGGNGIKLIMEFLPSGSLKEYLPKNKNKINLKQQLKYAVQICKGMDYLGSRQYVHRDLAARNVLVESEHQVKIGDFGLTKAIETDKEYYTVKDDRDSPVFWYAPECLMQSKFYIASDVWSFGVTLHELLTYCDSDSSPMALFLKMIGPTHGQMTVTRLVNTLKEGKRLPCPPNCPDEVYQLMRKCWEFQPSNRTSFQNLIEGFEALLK
Protocol: The inhibitory potency of compounds of the disclosure against the JAK1 kinase activity on STAT3 was evaluated using an MSD-platform plate-based assay format. TF1 cells natively expressing STAT3 and JAK1 were serum-starved to reduce background phosphorylation levels, then cells were treated with compounds of the disclosure for 1 hour with a 10-point four-fold dilution series starting at 10 μM. Cells were then stimulated with 30 ng/mL interleukin 6 (IL-6) for 15 minutes. Cells were lysed and pSTAT3 levels were quantitated using an MSD plate-based assay with anti-STAT3 antibodies. The data were normalized and the percent activity versus log concentration of compound was fitted with a 4-parameter logistic model to generate IC50 curves.

Chain of JH2 domain of human Tyk2 (P29597 575-876): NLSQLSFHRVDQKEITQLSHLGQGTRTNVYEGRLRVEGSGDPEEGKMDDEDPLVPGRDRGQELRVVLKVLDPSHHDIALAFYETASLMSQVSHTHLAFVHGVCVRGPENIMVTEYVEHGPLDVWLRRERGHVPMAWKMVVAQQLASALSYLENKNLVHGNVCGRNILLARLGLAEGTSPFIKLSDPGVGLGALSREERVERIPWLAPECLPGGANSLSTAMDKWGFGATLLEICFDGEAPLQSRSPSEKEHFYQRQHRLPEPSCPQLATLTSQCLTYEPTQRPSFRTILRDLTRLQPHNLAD
Chain of Tyk2 (P29597 whole entry): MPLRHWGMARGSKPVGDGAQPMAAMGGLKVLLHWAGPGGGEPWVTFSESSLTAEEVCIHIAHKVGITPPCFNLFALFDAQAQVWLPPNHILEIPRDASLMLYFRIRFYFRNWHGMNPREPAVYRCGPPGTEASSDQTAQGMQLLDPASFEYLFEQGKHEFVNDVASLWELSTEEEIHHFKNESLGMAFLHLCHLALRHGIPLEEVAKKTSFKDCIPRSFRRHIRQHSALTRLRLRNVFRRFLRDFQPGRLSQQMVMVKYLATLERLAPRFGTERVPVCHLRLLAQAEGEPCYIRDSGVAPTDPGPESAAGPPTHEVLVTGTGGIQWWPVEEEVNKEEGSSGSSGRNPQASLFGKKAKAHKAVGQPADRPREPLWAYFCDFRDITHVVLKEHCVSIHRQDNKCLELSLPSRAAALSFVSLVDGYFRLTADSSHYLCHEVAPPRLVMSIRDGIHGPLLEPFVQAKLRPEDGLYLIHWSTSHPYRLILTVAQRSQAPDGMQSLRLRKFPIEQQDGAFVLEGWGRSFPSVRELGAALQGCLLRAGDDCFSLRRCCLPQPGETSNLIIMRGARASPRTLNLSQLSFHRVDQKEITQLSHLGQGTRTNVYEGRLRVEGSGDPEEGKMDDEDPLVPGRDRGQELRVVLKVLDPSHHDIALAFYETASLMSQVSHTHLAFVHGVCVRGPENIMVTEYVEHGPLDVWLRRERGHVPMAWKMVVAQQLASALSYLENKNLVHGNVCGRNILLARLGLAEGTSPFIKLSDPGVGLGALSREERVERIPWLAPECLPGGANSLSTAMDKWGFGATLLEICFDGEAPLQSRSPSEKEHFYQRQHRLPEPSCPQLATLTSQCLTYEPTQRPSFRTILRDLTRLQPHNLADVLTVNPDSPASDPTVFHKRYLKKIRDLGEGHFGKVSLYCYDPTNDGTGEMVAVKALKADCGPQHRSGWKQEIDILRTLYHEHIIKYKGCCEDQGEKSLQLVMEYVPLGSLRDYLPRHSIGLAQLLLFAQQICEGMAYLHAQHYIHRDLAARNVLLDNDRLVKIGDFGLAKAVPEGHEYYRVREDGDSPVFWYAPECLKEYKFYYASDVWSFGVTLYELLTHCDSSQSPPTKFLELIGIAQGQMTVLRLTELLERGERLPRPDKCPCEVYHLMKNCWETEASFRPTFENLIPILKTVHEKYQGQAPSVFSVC

COc1cnc(NC(C)=O)cc1Nc1cc(C2CC2)nc(C(C)(F)F)n1 [Example 17, N-(4-((6-cyclopropyl-2-(1,1-difluoroethyl)pyrimidin-4-yl)amino)-5-methoxypyridin-2-yl)acetamide]
IC50 (JH2 domain of human Tyk2): ≤ 0.01 µM
IC50 (Tyk2): 0.01 to 0.1 µM
IC50 (JAK2): ≥ 1 µM
IC50 (JAK1): ≥ 1 µM

COc1cnc(NC(C)=O)cc1Nc1cc(O[C@H]2C[C@H](OC)C2)nc(C(C)(F)F)n1 [Example 19, N-(4-((2-(1,1-difluoroethyl)-6-((1r,3r)-3-methoxycyclobutoxy)pyrimidin-4-yl)amino)-5-methoxypyridin-2-yl)acetamide]
IC50 (JH2 domain of human Tyk2): ≤ 0.01 µM
IC50 (Tyk2): 0.01 to 0.1 µM
IC50 (JAK2): ≥ 1 µM
IC50 (JAK1): ≥ 1 µM

CCc1cc(Nc2cc(NC(C)=O)ncc2OCCOC)nc(C(C)(F)F)n1 [Example 20, N-(4-((2-(1,1-difluoroethyl)-6-ethylpyrimidin-4-yl)amino)-5-(2-methoxyethoxy)pyridin-2-yl)acetamide]
IC50 (JH2 domain of human Tyk2): ≤ 0.01 µM
IC50 (Tyk2): ≤ 0.01 µM
IC50 (JAK2): ≥ 1 µM
IC50 (JAK1): ≥ 1 µM

COCCOc1cnc(NC(C)=O)cc1Nc1cc(OC)nc(C(C)(F)F)n1 [Example 21, N-(4-((2-(1,1-difluoroethyl)-6-methoxypyrimidin-4-yl)amino)-5-(2-methoxyethoxy)pyridin-2-yl)acetamide]
IC50 (JH2 domain of human Tyk2): ≤ 0.01 µM
IC50 (Tyk2): 0.01 to 0.1 µM
IC50 (JAK2): ≥ 1 µM
IC50 (JAK1): ≥ 1 µM

COCCOc1cnc(NC(C)=O)cc1Nc1cc(C)nc(C(C)(F)F)n1 [Example 22, N-(4-((2-(1,1-difluoroethyl)-6-methylpyrimidin-4-yl)amino)-5-(2-methoxyethoxy)pyridin-2-yl)acetamide]
IC50 (JH2 domain of human Tyk2): ≤ 0.01 µM
IC50 (Tyk2): ≤ 0.01 µM
IC50 (JAK2): ≥ 1 µM
IC50 (JAK1): ≥ 1 µM

CC(=O)Nc1cc(Nc2cc(C)nc(C(C)(F)F)n2)c(C2CC2)cn1 [Example 29, N-(5-cyclopropyl-4-((2-(1,1-difluoroethyl)-6-methylpyrimidin-4-yl)amino)pyridin-2-yl)acetamide]
IC50 (JH2 domain of human Tyk2): ≤ 0.01 µM
IC50 (Tyk2): 0.1 to 1 µM
IC50 (JAK2): ≥ 1 µM
IC50 (JAK1): ≥ 1 µM

CCOc1cnc(NC(C)=O)cc1Nc1cc(OCCOC)nc(C(C)(F)F)n1 [Example 32, N-(4-((2-(1,1-difluoroethyl)-6-(2-methoxyethoxy)pyrimidin-4-yl)amino)-5-ethoxypyridin-2-yl)acetamide]
IC50 (JH2 domain of human Tyk2): ≤ 0.01 µM
IC50 (Tyk2): 0.01 to 0.1 µM
IC50 (JAK2): ≥ 1 µM
IC50 (JAK1): ≥ 1 µM

CCc1cc(Nc2cc(NC(C)=O)ncc2OC)nc(C(C)(F)F)n1 [Example 36, N-(4-((2-(1,1-difluoroethyl)-6-ethylpyrimidin-4-yl)amino)-5-methoxypyridin-2-yl)acetamide]
IC50 (JH2 domain of human Tyk2): ≤ 0.01 µM
IC50 (Tyk2): 0.01 to 0.1 µM
IC50 (JAK2): ≥ 1 µM
IC50 (JAK1): ≥ 1 µM

COCCOc1cc(Nc2cc(NC(C)=O)ncc2OC)nc(C(C)(F)F)n1 [Example 37, N-(4-((2-(1,1-difluoroethyl)-6-(2-methoxyethoxy)pyrimidin-4-yl)amino)-5-methoxypyridin-2-yl)acetamide]
IC50 (JH2 domain of human Tyk2): ≤ 0.01 µM
IC50 (Tyk2): 0.1 to 1 µM
IC50 (JAK2): ≥ 1 µM
IC50 (JAK1): ≥ 1 µM

CC(=O)Nc1cc(Nc2cc(C)nc(C(C)(F)F)n2)c(OC(C)C)cn1 [Example 39, N-(4-((2-(1,1-difluoroethyl)-6-methylpyrimidin-4-yl)amino)-5-isopropoxypyridin-2-yl)acetamide]
IC50 (JH2 domain of human Tyk2): ≤ 0.01 µM
IC50 (Tyk2): 0.01 to 0.1 µM
IC50 (JAK2): ≥ 1 µM
IC50 (JAK1): ≥ 1 µM

COc1cnc(NC(C)=O)cc1Nc1cc(C)nc(C(C)(F)F)n1 [Example 46, N-(4-((2-(1,1-difluoroethyl)-6-methylpyrimidin-4-yl)amino)-5-methoxypyridin-2-yl)acetamide]
IC50 (JH2 domain of human Tyk2): ≤ 0.01 µM
IC50 (Tyk2): 0.01 to 0.1 µM
IC50 (JAK2): ≥ 1 µM
IC50 (JAK1): ≥ 1 µM

[2H]C([2H])([2H])C([2H])([2H])Oc1cnc(NC(C)=O)cc1Nc1cc(C)nc(C(C)(F)F)n1 [Example 49, N-(4-((2-(1,1-difluoroethyl)-6-methylpyrimidin-4-yl)amino)-5-(ethoxy-d5)pyridin-2-yl)acetamide]
IC50 (JH2 domain of human Tyk2): ≤ 0.01 µM
IC50 (Tyk2): 0.01 to 0.1 µM
IC50 (JAK2): ≥ 1 µM
IC50 (JAK1): ≥ 1 µM
